Where two headings read alike, the source gives them in different places.
Columns and labels:
[1] = test system: Phytophthora (late blight); assay: whole plant or invertebrate; format: in vivo; conditions: in Solanum lycopersicum, read-out: inhibit fungal infestation
[2] = test system: Phytophthora (late blight); assay: whole plant or invertebrate; format: in vivo; conditions: in Solanum tuberosum, read-out: inhibit fungal infestation
Plasmopara viticola = conditions: read-out: inhibit fungal infestation
Procedure: 5 week old grape seedlings cv. Gutedel are treated with the formulated test compound in a spray chamber. One day after application grape plants are inoculated by spraying a sporangia suspension (4×104 sporangia/ml) on the lower leaf side of the test plants. After an incubation period of 6 days at +21° C. and 95% r. h. in a greenhouse the disease incidence is assessed.

Row | Compound | melting point [°C] | inhibition at 200 ppm [1] [%] | inhibition at 200 ppm [2] [%] | inhibition at 200 ppm (Plasmopara viticola) [%]
1 | CCS(=O)(=O)N[C@H](C(=O)NCCc1ccc(OCc2ccccc2)cc1)C(C)C | 133 to 134 | – | – | –
2 | CCS(=O)(=O)N[C@H](C(=O)NCCc1ccc(OCC#Cc2ccc(Cl)cc2)cc1)C(C)C [Compound A1.1, (S)-2-Ethanesulfonylamino-N-(2-{4-[3-(4-chloro-phenyl)-propargyloxvy]-phenyl}-ethyl)-3-methyl-butyramide] | – | ≥ 80 | ≥ 80 | ≥ 80

— patent publication US20040092401A1, “Novel alpha-sulfin and alpha-sulfonamino amide derivatives” (priority 2000, published 2004)
